Patent US8492349B2, “Analgesia with minimal tolerance and dependence by a mu opioid receptor agonist that also binds filamin A” (Pain Therapeutics, Inc., priority 2007, dated 2013)
Like-named read-outs stand apart in the source and are kept apart here.

Experiments:
[1] = tested on: MOR; experiment: Stimulation of MOR screen; type: biochemical
Text: In that Table, the log P value is the logarithm of a compound's partition coefficient between n-octanol and water [log(coctanol/cwater)], and is a well established measure of the compound's […]. “C Log P” shown in the Table is a calculated Log P value that is obtained using a program copyrighted (1988-2008) by Pomona College and BioByte, Inc. of Claremont, Calif.

[2] = tested on: other Go-coupled receptors; experiment: Stimulation of other Go-coupled receptors; type: biochemical; conditions: 0.1 μM screen
[3] = target: FLNA (Homo sapiens, UniProt P21333); experiment: FLNA binding affinity screen
Sequence of FLNA (P21333 whole entry): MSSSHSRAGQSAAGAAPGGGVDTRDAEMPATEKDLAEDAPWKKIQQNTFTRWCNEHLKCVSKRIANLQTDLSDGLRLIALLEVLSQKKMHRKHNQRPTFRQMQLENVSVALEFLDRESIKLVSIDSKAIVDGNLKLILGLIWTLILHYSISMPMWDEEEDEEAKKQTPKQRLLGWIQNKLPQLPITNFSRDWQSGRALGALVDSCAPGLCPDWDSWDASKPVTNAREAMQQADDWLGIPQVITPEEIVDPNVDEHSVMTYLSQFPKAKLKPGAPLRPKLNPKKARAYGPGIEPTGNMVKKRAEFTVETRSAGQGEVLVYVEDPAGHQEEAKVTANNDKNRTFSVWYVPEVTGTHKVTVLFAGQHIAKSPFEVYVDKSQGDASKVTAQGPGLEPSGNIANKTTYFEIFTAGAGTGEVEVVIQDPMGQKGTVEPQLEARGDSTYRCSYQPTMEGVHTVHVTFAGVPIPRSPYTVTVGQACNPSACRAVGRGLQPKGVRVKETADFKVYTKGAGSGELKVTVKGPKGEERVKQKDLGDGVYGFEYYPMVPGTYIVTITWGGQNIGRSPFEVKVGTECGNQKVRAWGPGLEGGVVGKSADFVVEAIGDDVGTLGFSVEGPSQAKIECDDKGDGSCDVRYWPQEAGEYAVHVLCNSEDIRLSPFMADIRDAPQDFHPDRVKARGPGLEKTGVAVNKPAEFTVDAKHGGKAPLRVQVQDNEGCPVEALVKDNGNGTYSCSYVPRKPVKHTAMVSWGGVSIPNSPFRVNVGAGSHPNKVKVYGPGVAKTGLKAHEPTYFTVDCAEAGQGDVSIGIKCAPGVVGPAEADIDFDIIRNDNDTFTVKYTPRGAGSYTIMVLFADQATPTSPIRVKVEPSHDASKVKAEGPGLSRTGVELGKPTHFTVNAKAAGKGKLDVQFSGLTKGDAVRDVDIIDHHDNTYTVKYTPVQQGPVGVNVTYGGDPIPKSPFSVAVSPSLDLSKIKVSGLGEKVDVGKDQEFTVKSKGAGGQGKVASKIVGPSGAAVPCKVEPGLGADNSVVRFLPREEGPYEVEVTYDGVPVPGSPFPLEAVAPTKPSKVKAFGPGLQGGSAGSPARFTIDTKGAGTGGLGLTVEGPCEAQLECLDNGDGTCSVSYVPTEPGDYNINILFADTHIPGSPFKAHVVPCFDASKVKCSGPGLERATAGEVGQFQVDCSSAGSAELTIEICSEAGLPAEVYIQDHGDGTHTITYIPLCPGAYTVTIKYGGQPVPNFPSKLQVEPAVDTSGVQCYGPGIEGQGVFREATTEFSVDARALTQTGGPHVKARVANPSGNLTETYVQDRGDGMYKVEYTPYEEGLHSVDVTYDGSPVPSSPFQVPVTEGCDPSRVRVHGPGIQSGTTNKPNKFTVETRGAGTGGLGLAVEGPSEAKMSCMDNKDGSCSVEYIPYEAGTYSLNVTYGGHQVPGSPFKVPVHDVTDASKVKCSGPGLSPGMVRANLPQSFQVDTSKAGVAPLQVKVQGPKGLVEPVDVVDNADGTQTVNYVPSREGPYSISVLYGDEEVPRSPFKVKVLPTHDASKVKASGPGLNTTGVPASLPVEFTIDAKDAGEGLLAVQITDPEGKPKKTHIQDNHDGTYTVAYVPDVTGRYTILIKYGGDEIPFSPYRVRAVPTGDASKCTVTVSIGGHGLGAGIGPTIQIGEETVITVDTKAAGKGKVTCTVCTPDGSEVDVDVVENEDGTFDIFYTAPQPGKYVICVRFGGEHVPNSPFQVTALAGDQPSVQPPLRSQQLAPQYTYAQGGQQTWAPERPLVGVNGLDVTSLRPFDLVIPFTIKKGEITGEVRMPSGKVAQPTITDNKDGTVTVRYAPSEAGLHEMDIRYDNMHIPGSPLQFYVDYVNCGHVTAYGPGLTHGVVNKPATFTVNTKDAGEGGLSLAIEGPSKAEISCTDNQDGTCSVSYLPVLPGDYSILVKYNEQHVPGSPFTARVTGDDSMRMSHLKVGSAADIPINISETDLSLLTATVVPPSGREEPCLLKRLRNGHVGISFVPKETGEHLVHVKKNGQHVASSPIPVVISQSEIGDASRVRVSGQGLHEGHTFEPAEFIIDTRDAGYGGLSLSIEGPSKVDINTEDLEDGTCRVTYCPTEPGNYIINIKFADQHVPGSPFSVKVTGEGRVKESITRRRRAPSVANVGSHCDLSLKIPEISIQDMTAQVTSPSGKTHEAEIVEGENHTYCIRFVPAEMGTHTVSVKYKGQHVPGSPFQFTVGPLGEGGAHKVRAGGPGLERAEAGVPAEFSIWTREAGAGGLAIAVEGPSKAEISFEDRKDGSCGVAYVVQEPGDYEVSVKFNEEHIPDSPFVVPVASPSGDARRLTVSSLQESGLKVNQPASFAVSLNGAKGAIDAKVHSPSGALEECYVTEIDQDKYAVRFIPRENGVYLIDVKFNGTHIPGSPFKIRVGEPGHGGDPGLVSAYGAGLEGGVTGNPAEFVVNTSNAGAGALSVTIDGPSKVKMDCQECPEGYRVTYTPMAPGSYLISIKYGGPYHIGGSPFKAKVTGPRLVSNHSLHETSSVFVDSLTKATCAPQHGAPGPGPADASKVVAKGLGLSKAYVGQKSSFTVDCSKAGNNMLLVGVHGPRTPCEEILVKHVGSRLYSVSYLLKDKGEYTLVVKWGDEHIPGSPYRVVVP

[4] = target: T1, FLNA in A7 cell membranes (Homo sapiens, UniProt P21333); experiment: [3H]NLX binding to membranes from FLNA-expressing A7 cells (competition); conditions: for attenuation of [3H]NLX binding to A7 cell membranes: 10 μM peptide, 500 pM [3H]NLX; for displacement of [3H]NLX binding to A7 membranes: FIG. 3a
T1 construct: expressed in transfected cells; host or cells: A7, a subclone of human melanoma M2, stably transfected with human FLNA cDNA; membranes
T1 sequence (P21333 whole entry): as above
Protocol: To confirm FLNA as the high-affinity target of NLX, [^3H]NLX binding to the human melanoma cell line M2 and its subclone A7 was assessed. The M2 subclone lacks FLNA and MOR and its subclone A7 is stably transfected with human FLNA cDNA (obtained from Drs. Stossel and Ohta at Harvard Medical School).
Membranes prepared from A7 cells (50 μg) were incubated in binding medium consisting of 50 mM Tris HCl, pH 7.5; 100 mM NaCl; and protease and protein phosphatase inhibitors with 500 pM [^3H]NLX for 30 minutes at 37° C. Total incubation volume was 500 μl. Non-specific binding was defined by 1 μM NTX. […] Reactions were terminated by, rapid filtration through GF/B membranes under vacuum. The filters were washed twice with 5 ml ice-cold binding medium, and [^3H]NLX retained on the filters was measured by liquid scintillation spectrometry.
(§1) To determine the NLX binding site on FLNA, various overlapping peptides encoding the c-terminal section of FLNA were used to compete for [^3H]NLX binding to FLNA using either A7 cell membranes or purified FLNA from A7 or SK-N-MC cells. Peptides were prepared by Sigma-Genosys (The Woodlands, Tex.). The reaction mixture consisted of 100 μg A7 membranes or 2 μg purified FLNA, 500 pM [^3H]NLX, and 10 μM of either FLNA2550-2560, FLNA2556-2565, FLNA2561-2570, FLNA2566-2575 or FLNA2576-2581 in 500 μl binding medium. The reaction was carried out at 37° C. for 30 minutes and terminated by rapid filtration through GF/B membranes under vacuum. The filters were washed twice with 5 ml ice-cold binding medium, and [^3H]NLX retained on the filters was measured by liquid, scintillation spectrometry.
To determine the essential amino acid residue(s) within the NLX-interacting pentapeptide, four additional pentapeptides, each with one amino acid residue replaced by alanine, were used along with the correct FLNA2561-2565 pentapeptide to compete for [^3H]NLX binding to FLNA using 100 μg A7 cell membranes. Peptides were generated by Sigma-Genosys. The reaction mixture consisted of 500 pM [^3H]NLX, 100 μg A7 membranes, and 10 μM pentapeptide [AAKGL, (SEQ ID NO:13); VAKGL (SEQ ID NO:14); VAAGL (SEQ ID NO:12); VAKAL (SEQ ID NO:15) or VAKGA (SEQ ID NO:16)] in 500 μl binding medium. The reaction was conducted at 37° C. for 30 minutes and terminated by rapid filtration through GF/B membranes under reduced pressure. The filters were washed twice with 5 ml ice-cold binding medium, and [^3H]NLX retained on the filters was measured by liquid scintillation spectrometry.

[5] = target: T2, purified human FLNA (Homo sapiens, UniProt P21333); experiment: [3H]NLX binding to immunopurified FLNA; conditions: for attenuation of [3H]NLX binding to purified human FLNA: 10 μM peptide, 500 pM [3H]NLX
T2 construct: made in house
T2 sequence (P21333 whole entry): as above
Protocol: as §1

[6] = tested on: MOR-Gs coupling; experiment: Chronic morphine-induced MOR Go-to-Gs coupling switch in organotypic striatal slice cultures; type: cell-based, rat; conditions: for effect on NLX-mediated prevention of cellular indices of morphine tolerance (Go-to-Gs switch and cAMP): 10 μM peptide added to morphine plus 10 pM NLX
Protocol: For determination of MOR-G protein coupling, slices were homogenated to generate synaptic membranes. […] Following centrifugation, striatal membrane lysates were immunoprecipitated with immobilized anti-Gαs/olf or -Gαo conjugated with immobilized protein G-agarose beads. The level of MOR in anti-Gαs/olf or -Gαo immunoprecipitates was determined by Western blotting using specific anti-MOR antibodies.

[7] = tested on: cAMP accumulation
Protocol: Tissues were homogenized by sonication and protein precipitated with 1M TCA. The supernatant obtained after centrifugation was neutralized using 50 mM Tris, pH 9.0. The level of cAMP in the brain lysate was measured by a cAMP assay kit (PerkinElmer Life Science, Boston) according to manufacturer's instructions.

[8] = tested on: pS133-CREB; experiment: Acute morphine-induced CREB S133 phosphorylation in organotypic striatal slice cultures; type: cell-based, rat; conditions: for pS133CREB level in striatal tissue: 100 μM; for pS133CREB detection, treatment alone: without morphine
Protocol: CREB in the solubilized cytosol and nucleus was immunoprecipitated with an anti-CREB antibody (Santa Cruz) and the level of pS^133-CREB was then determined by Western blotting using a specific antibody directed against pS^133-CREB (Santa Cruz).

[9] = tested on: MOR-Gs coupling; experiment: Acute morphine-induced MOR Go-to-Gs coupling switch in organotypic striatal slice cultures; type: cell-based, rat; conditions: for effect on acute morphine-induced coupling switch by MOR: pre-treatment 10 μM peptide
Protocol: Tissues were harvested 5, 15 or 60 minutes after the drug exposure by centrifugation. For determination of MOR-G protein coupling, slices were homogenated to generate synaptic membranes and cytosolic fractions. Synaptic membranes (400 μg) were then solubilized with 0.5% digitonin/0.2% sodium cholate/0.5% NP-40 in 250 μl of immunoprecipitation buffer (25 mM HEPES, pH 7.5; 200 mM NaCl, 1 mM EDTA, 50 μg/ml leupeptin, 10 μg/ml aprotinin, 2 μg/ml soybean trypsin inhibitor, 0.04 mM PMSF and mixture of protein phosphatase inhibitors). Following centrifugation, striatal membrane lysates were immunoprecipitated with immobilized anti-Gαs/olf or -Gαo (Santa Cruz) conjugated with immobilized protein A-agarose beads (Pierce-Endogen). The level of MOR in anti-Gαs/olf or -Gαo immunoprecipitates was determined by Western blotting using specific anti-MOR antibodies.

[10] = cited from earlier work
[11] = co-treatment 100 pM with 100 μM morphine
[12] = pre-treatment 10 μM peptide, 100 μM morphine

Molecule: C[C@@H](NC(=O)[C@@H](N)Cc1ccc(O)cc1)C(=O)NCC(=O)N(C)[C@@H](Cc1ccccc1)C(=O)NCCO [DAMGO]
- Stimulation of MOR at (at 0.1 μM) [1]: 92%
- Stimulation of other Go-coupled receptors [2]: 6%

Molecule: COc1ccc(S(=O)(=O)N2CCC3(CC2)OCCN3S(=O)(=O)c2ccc(OC)cc2)cc1 [Compound 5]
- Stimulation of MOR at (at 0.1 μM) [1]: 91%
- Stimulation of other Go-coupled receptors [2]: 11%
- Kd ([3]; read-out: FLNA affinity): 8.65 pM

Molecule: COc1cc(CCC(O)CC2c3c(cc4c(c3OC)OCO4)CCN2C)ccc1O (stereo not shown) [Compound 3]
- Stimulation of MOR at (at 0.1 μM) [1]: 78%
- Stimulation of other Go-coupled receptors [2]: 16%

Molecule: FLNA2556-2565: overlapping peptide encoding the c-terminal section of FLNA (DASKVVAKGL; UniProt P21333 2556-2565, looked up, fragment)
- attenuation of [3H]NLX binding to A7 cell membranes [4]: markedly attenuated
- attenuation of [3H]NLX binding to purified human FLNA [5]: markedly attenuated

Molecule: FLNA2566-2575: overlapping peptide encoding the c-terminal section of FLNA (GLSKAYVGQK; UniProt P21333 2566-2575, looked up, fragment)
- effect on NLX-mediated prevention of cellular indices of morphine tolerance (Go-to-Gs switch and cAMP) [6]: not

Molecule: COc1ccc(C(=O)CC2c3c(cc4c(c3OC)OCO4)CC[N+]2(C)C)c(OC)c1 (stereo not shown) [Compound 7]
- Stimulation of MOR at (at 0.1 μM) [1]: 64%
- Stimulation of other Go-coupled receptors [2]: 21%
- Kd ([3]; read-out: FLNA affinity): 2.86 pM

Molecule: COc1ccccc1CC(=O)CC1c2c(cc3c(c2OC)OCO3)CC[N+]1(C)C (stereo not shown) [Compound 6]
- Stimulation of MOR at (at 0.1 μM) [1]: 91%
- Stimulation of other Go-coupled receptors [2]: 23%

Molecule: CN1CC[C@]23c4c5ccc(O)c4O[C@H]2[C@@H](O)C=C[C@H]3[C@H]1C5 [morphine]
- displacement of [3H]NLX binding to A7 membranes [4]: not
- Go-to-Gs coupling switch by MOR after chronic treatment ([6]; 100 μM, 1 hour twice daily for 7 days): induced a robust Go-to-Gs coupling switch
- effect on DAMGO-mediated reduction in cAMP accumulation ([7]; chronic 100 μM treatment): attenuated
- pS133CREB level in striatal tissue ([8]; after 5 and 15 minutes of exposure): robust level
- pS133CREB level in striatal tissue ([8]; after 1 hour of exposure): only a residual level

Molecule: FLNA2561-2570: overlapping peptide encoding the c-terminal section of FLNA (VAKGLGLSKA; UniProt P21333 2561-2570, looked up, fragment)
- attenuation of [3H]NLX binding to A7 cell membranes [4]: markedly attenuated
- effect on NLX-mediated prevention of cellular indices of morphine tolerance (Go-to-Gs switch and cAMP) [6]: abolished
- attenuation of [3H]NLX binding to purified human FLNA [5]: markedly attenuated

Molecule: FLNA2550-2560: overlapping peptide encoding the c-terminal section of FLNA (PGPGPADASKV; UniProt P21333 2550-2560, looked up, fragment)
- effect on NLX-mediated prevention of cellular indices of morphine tolerance (Go-to-Gs switch and cAMP) [6]: not

Molecule: C=CCN1CC[C@]23c4c5ccc(O)c4O[C@H]2C(=O)CC[C@@]3(O)[C@H]1C5 [Naloxone, naloxone]
- effect on chronic morphine-induced attenuation of the DAMGO-induced reduction in cAMP production ([7]; 10 pM with 100 μM morphine): blocked
- Kd ([5]; read-out: binding affinity for immunopurified FLNA): ~43 pM
- effect on acute morphine-induced pS133CREB signal [8, 11]: virtually abolished
- pS133CREB detection, treatment alone [8]: did not result in pS^133CREB detection

Molecule: VAAGL (SEQ ID NO:12) [control peptide, FLNA2561-2565 withone mid-point alanine substitution]
- Go coupling at 15 minutes ([9]; 10 μM peptide, 100 μM morphine, 15 minutes): mildly preserved
- effect on acute morphine-induced coupling switch by MOR ([9]; 100 μM morphine): did not prevent
- effect on acute morphine-induced pS133CREB signal [8, 12]: did not significantly diminish

Molecule: O=C1CC[C@@]2(O)[C@H]3Cc4ccc(O)c5c4[C@@]2(CCN3CC2CC2)[C@H]1O5 [Naltrexone, naltrexone]
- displacement of [3H]NLX binding to A7 membranes [4]: robustly displaced
- IC50 ([4]; competition curve, 16 concentrations 0.2 pM to 1 μM, FIG. 4, read-out: IC50 for inhibition of [3H]NLX binding to membranes from FLNA-expressing A7 cells): 43 pM
- effect on acute rewarding effects of oxycodone ([10]; 3 ng/kg): without effect
- effect on acute rewarding effects of oxycodone ([10]; 0.03, 0.3 and 30 ng/kg): blocked
- effect on acute morphine-induced G protein coupling switch by MOR [9, 11]: prevented
- effect on MOR coupling alone ([9]; without morphine): had no effect
- Kd [3]: 3.9 pM
- effect on acute morphine-induced pS133CREB signal [8, 11]: virtually abolished
- pS133CREB detection, treatment alone [8]: did not result in pS^133CREB detection

Molecule: C[C@@H]1CCC2[C@]3(C)COC(C)(C)OC3CC[C@@]2(C)C12CCC(CO)(CCO)O2 (stereo partly shown) [Compound 2]
- Stimulation of MOR at (at 0.1 μM) [1]: 67%
- Stimulation of other Go-coupled receptors [2]: 11%

Molecule: COC(OC)C12CCC(=O)C=C1CCC1C3CCC(OC(C)=O)C3(C)CCC12 (stereo not shown) [Compound 1]
- Stimulation of MOR at (at 0.1 μM) [1]: 79%
- Stimulation of other Go-coupled receptors [2]: 19%

Molecule: VAKGL (SEQ ID NO:14) [decoy pentapeptide]
- effect on acute morphine-induced coupling switch by MOR ([9]; 100 μM morphine): completely prevented
- effect on acute morphine-induced pS133CREB signal [8, 12]: virtually abolished
